Values of other authors, collected in patent publication US20250311721A1, “UREA COMPLEXES OF ACTIVE INGREDIENTS” (priority 2022, published 2025).

O=C(NCCc1ncc(C(F)(F)F)cc1Cl)c1ccccc1C(F)(F)F [Fluopyram]
solubility in DMSO (DMSO): > 250 mg/mL
solubility in ethyl acetate (ethyl acetate): > 250 mg/mL
